Reference: US9149038B2, “4-amino-6-(heterocyclic)picolinates and 6-amino-2-(heterocyclic)pyrimidine-4-carboxylates and their use as herbicides” (Dow AgroSciences LLC, priority 2013, dated 2015)
Read-outs that look alike come from different tables or passages of the source.

Assays:
[1] = tested on: Key Broadleaf Weed and Crop Species; test: Post-Emergent Test II: postemergent herbicidal activity, visual rating after 14 d (Table 7); type: in vivo; conditions: post-emergence, 336 h; for pest or weed control at 35 g/ha: 35 g ai/ha; for pest or weed control at 70 g/ha: 70 g ai/ha; for pest or weed control at 140 g/ha: 140 g ai/ha
Outline: (§1)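 Plants were raised in a greenhouse for 7-21 d and treated once at the first or second true leaf stage. Compounds, dissolved in 97:3 acetone:DMSO then diluted into an aqueous acetone/isopropanol/crop oil/Triton X-155 carrier, were applied by overhead track sprayer at 187 L/ha. After 14 d with subirrigation, injury was scored visually from 0 (none) to 100 (complete kill).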

[2] = tested on: Key Grass and Sedge Weeds as well as Grass Crops; test: Post-Emergent Test II: postemergent herbicidal activity, visual rating after 14 d (Table 8); type: in vivo; conditions: post-emergence, 336 h; for pest or weed control at 35 g/ha: 35 g ai/ha; for pest or weed control at 70 g/ha: 70 g ai/ha; for pest or weed control at 140 g/ha: 140 g ai/ha
Outline: as §1

[3] = lambsquarters (Chenopodium album), read-out: Visual Growth Reduction (%) 14 Days After Application CHEAL
[4] = oilseed rape, canola (Brassica napus), read-out: Visual Growth Reduction (%) 14 Days After Application BRSNN
[5] = redroot pigweed (Amaranthus retroflexus), read-out: Visual Growth Reduction (%) 14 Days After Application AMARE
[6] = sunflower (Helianthus annuus), read-out: Visual Growth Reduction (%) 14 Days After Application HELAN
[7] = velvetleaf (Abutilon theophrasti), read-out: Visual Growth Reduction (%) 14 Days After Application ABUTH
[8] = wild poinsettia (Euphorbia heterophylla), read-out: Visual Growth Reduction (%) 14 Days After Application EPHHL
[9] = barnyardgrass (Echinochloa crus-galli), read-out: Visual Growth Reduction (%) 14 Days After Application ECHCG
[10] = giant foxtail (Setaria faberi), read-out: Visual Growth Reduction (%) 14 Days After Application SETFA
[11] = maize, corn (Zea mays), read-out: Visual Growth Reduction (%) 14 Days After Application ZEAMX
[12] = rice (Oryza sativa), read-out: Visual Growth Reduction (%) 14 Days After Application ORYSA
[13] = wheat, spring (Triticum aestivum), read-out: Visual Growth Reduction (%) 14 Days After Application TRZAS
[14] = yellow nutsedge (Cyperus esculentus), read-out: Visual Growth Reduction (%) 14 Days After Application CYPES

Nc1c(F)c(-c2cc3c(cc2F)OC(F)(F)O3)nc(C(=O)O)c1Cl [Compound 13]
pest or weed control at 35 g/ha [1, 3]: 60 to 74% | pest or weed control at 70 g/ha [1, 3]: 85 to 94% | pest or weed control at 140 g/ha [1, 3]: 85 to 94% | pest or weed control at 35 g/ha [1, 4]: 0 to 29% | pest or weed control at 70 g/ha [1, 4]: 30 to 44% | pest or weed control at 140 g/ha [1, 4]: 45 to 59% | pest or weed control at 35 g/ha [1, 5]: 0 to 29% | pest or weed control at 70 g/ha [1, 5]: 0 to 29% | pest or weed control at 140 g/ha [1, 5]: 0 to 29% | pest or weed control at 35 g/ha [1, 6]: 85 to 94% | pest or weed control at 70 g/ha [1, 6]: 85 to 94% | pest or weed control at 140 g/ha [1, 6]: 85 to 94% | pest or weed control at 35 g/ha [1, 7]: 60 to 74% | pest or weed control at 70 g/ha [1, 7]: 75 to 84% | pest or weed control at 140 g/ha [1, 7]: 75 to 84% | pest or weed control at 35 g/ha [1, 8]: 45 to 59% | pest or weed control at 70 g/ha [1, 8]: 75 to 84% | pest or weed control at 140 g/ha [1, 8]: 95 to 100% | pest or weed control at 35 g/ha [2, 9]: 75 to 84% | pest or weed control at 70 g/ha [2, 9]: 95 to 100% | pest or weed control at 140 g/ha [2, 9]: 85 to 94% | pest or weed control at 35 g/ha [2, 10]: 75 to 84% | pest or weed control at 70 g/ha [2, 10]: 75 to 84% | pest or weed control at 140 g/ha [2, 10]: 85 to 94% | pest or weed control at 35 g/ha [2, 11]: 60 to 74% | pest or weed control at 70 g/ha [2, 11]: 60 to 74% | pest or weed control at 140 g/ha [2, 11]: 75 to 84% | pest or weed control at 35 g/ha [2, 12]: 0 to 29% | pest or weed control at 70 g/ha [2, 12]: 0 to 29% | pest or weed control at 140 g/ha [2, 12]: 0 to 29% | pest or weed control at 35 g/ha [2, 13]: 45 to 59% | pest or weed control at 70 g/ha [2, 13]: 60 to 74% | pest or weed control at 140 g/ha [2, 13]: 60 to 74% | pest or weed control at 35 g/ha [2, 14]: 45 to 59% | pest or weed control at 70 g/ha [2, 14]: 75 to 84% | pest or weed control at 140 g/ha [2, 14]: 95 to 100%

COc1cc(-c2nc(C(=O)O)c(Cl)c(N)c2F)cc2c1OCO2 [Compound 15]
pest or weed control at 35 g/ha [1, 3]: 0 to 29% | pest or weed control at 70 g/ha [1, 3]: 45 to 59% | pest or weed control at 140 g/ha [1, 3]: 75 to 84% | pest or weed control at 35 g/ha [1, 4]: 0 to 29% | pest or weed control at 70 g/ha [1, 4]: 0 to 29% | pest or weed control at 140 g/ha [1, 4]: 0 to 29% | pest or weed control at 35 g/ha [1, 5]: 0 to 29% | pest or weed control at 70 g/ha [1, 5]: 0 to 29% | pest or weed control at 140 g/ha [1, 5]: 45 to 59% | pest or weed control at 35 g/ha [1, 6]: 0 to 29% | pest or weed control at 70 g/ha [1, 6]: 0 to 29% | pest or weed control at 140 g/ha [1, 6]: 0 to 29% | pest or weed control at 35 g/ha [1, 7]: 0 to 29% | pest or weed control at 70 g/ha [1, 7]: 0 to 29% | pest or weed control at 140 g/ha [1, 7]: 0 to 29% | pest or weed control at 35 g/ha [1, 8]: 0 to 29% | pest or weed control at 70 g/ha [1, 8]: 0 to 29% | pest or weed control at 140 g/ha [1, 8]: 0 to 29% | pest or weed control at 35 g/ha [2, 9]: 0 to 29% | pest or weed control at 70 g/ha [2, 9]: 0 to 29% | pest or weed control at 140 g/ha [2, 9]: 0 to 29% | pest or weed control at 35 g/ha [2, 10]: 0 to 29% | pest or weed control at 70 g/ha [2, 10]: 0 to 29% | pest or weed control at 140 g/ha [2, 10]: 0 to 29% | pest or weed control at 35 g/ha [2, 11]: 0 to 29% | pest or weed control at 70 g/ha [2, 11]: 0 to 29% | pest or weed control at 140 g/ha [2, 11]: 0 to 29% | pest or weed control at 35 g/ha [2, 12]: 0 to 29% | pest or weed control at 70 g/ha [2, 12]: 0 to 29% | pest or weed control at 140 g/ha [2, 12]: 0 to 29% | pest or weed control at 35 g/ha [2, 13]: 0 to 29% | pest or weed control at 70 g/ha [2, 13]: 0 to 29% | pest or weed control at 140 g/ha [2, 13]: 0 to 29% | pest or weed control at 35 g/ha [2, 14]: 0 to 29% | pest or weed control at 70 g/ha [2, 14]: 0 to 29% | pest or weed control at 140 g/ha [2, 14]: 0 to 29%

COC(=O)c1nc(-c2cc3c(cc2F)OCO3)c(F)c(N)c1Cl [Compound 16]
pest or weed control at 35 g/ha [1, 3]: 45 to 59% | pest or weed control at 70 g/ha [1, 3]: 60 to 74% | pest or weed control at 140 g/ha [1, 3]: 60 to 74% | pest or weed control at 35 g/ha [1, 4]: 30 to 44% | pest or weed control at 70 g/ha [1, 4]: 60 to 74% | pest or weed control at 140 g/ha [1, 4]: 85 to 94% | pest or weed control at 35 g/ha [1, 5]: 85 to 94% | pest or weed control at 70 g/ha [1, 5]: 85 to 94% | pest or weed control at 140 g/ha [1, 5]: 95 to 100% | pest or weed control at 35 g/ha [1, 6]: 85 to 94% | pest or weed control at 70 g/ha [1, 6]: 95 to 100% | pest or weed control at 140 g/ha [1, 6]: 95 to 100% | pest or weed control at 35 g/ha [1, 7]: 60 to 74% | pest or weed control at 70 g/ha [1, 7]: 60 to 74% | pest or weed control at 140 g/ha [1, 7]: 75 to 84% | pest or weed control at 35 g/ha [1, 8]: 95 to 100% | pest or weed control at 70 g/ha [1, 8]: 95 to 100% | pest or weed control at 140 g/ha [1, 8]: 95 to 100% | pest or weed control at 35 g/ha [2, 9]: 60 to 74% | pest or weed control at 70 g/ha [2, 9]: 60 to 74% | pest or weed control at 140 g/ha [2, 9]: 75 to 84% | pest or weed control at 35 g/ha [2, 10]: 60 to 74% | pest or weed control at 70 g/ha [2, 10]: 60 to 74% | pest or weed control at 140 g/ha [2, 10]: 60 to 74% | pest or weed control at 35 g/ha [2, 11]: 30 to 44% | pest or weed control at 70 g/ha [2, 11]: 45 to 59% | pest or weed control at 140 g/ha [2, 11]: 75 to 84% | pest or weed control at 35 g/ha [2, 12]: 0 to 29% | pest or weed control at 70 g/ha [2, 12]: 0 to 29% | pest or weed control at 140 g/ha [2, 12]: 0 to 29% | pest or weed control at 35 g/ha [2, 13]: 0 to 29% | pest or weed control at 70 g/ha [2, 13]: 30 to 44% | pest or weed control at 140 g/ha [2, 13]: 45 to 59% | pest or weed control at 35 g/ha [2, 14]: 0 to 29% | pest or weed control at 70 g/ha [2, 14]: 45 to 59% | pest or weed control at 140 g/ha [2, 14]: 45 to 59%

Nc1c(F)c(-c2cc(F)c3c(c2)OC(F)(F)O3)nc(C(=O)O)c1Cl [Compound 18]
pest or weed control at 35 g/ha [1, 3]: 0 to 29% | pest or weed control at 70 g/ha [1, 3]: 0 to 29% | pest or weed control at 140 g/ha [1, 3]: 0 to 29% | pest or weed control at 35 g/ha [1, 4]: 0 to 29% | pest or weed control at 70 g/ha [1, 4]: 0 to 29% | pest or weed control at 140 g/ha [1, 4]: 0 to 29% | pest or weed control at 35 g/ha [1, 5]: 0 to 29% | pest or weed control at 70 g/ha [1, 5]: 0 to 29% | pest or weed control at 140 g/ha [1, 5]: 0 to 29% | pest or weed control at 35 g/ha [1, 6]: 0 to 29% | pest or weed control at 70 g/ha [1, 6]: 0 to 29% | pest or weed control at 140 g/ha [1, 6]: 45 to 59% | pest or weed control at 35 g/ha [1, 7]: 0 to 29% | pest or weed control at 70 g/ha [1, 7]: 0 to 29% | pest or weed control at 140 g/ha [1, 7]: 0 to 29% | pest or weed control at 35 g/ha [1, 8]: 0 to 29% | pest or weed control at 70 g/ha [1, 8]: 0 to 29% | pest or weed control at 140 g/ha [1, 8]: 0 to 29% | pest or weed control at 35 g/ha [2, 9]: 45 to 59% | pest or weed control at 70 g/ha [2, 9]: 60 to 74% | pest or weed control at 140 g/ha [2, 9]: 60 to 74% | pest or weed control at 35 g/ha [2, 10]: 45 to 59% | pest or weed control at 70 g/ha [2, 10]: 45 to 59% | pest or weed control at 140 g/ha [2, 10]: 60 to 74% | pest or weed control at 35 g/ha [2, 11]: 0 to 29% | pest or weed control at 70 g/ha [2, 11]: 30 to 44% | pest or weed control at 140 g/ha [2, 11]: 60 to 74% | pest or weed control at 35 g/ha [2, 12]: 0 to 29% | pest or weed control at 70 g/ha [2, 12]: 0 to 29% | pest or weed control at 140 g/ha [2, 12]: 0 to 29% | pest or weed control at 35 g/ha [2, 13]: 0 to 29% | pest or weed control at 70 g/ha [2, 13]: 45 to 59% | pest or weed control at 140 g/ha [2, 13]: 45 to 59% | pest or weed control at 35 g/ha [2, 14]: 0 to 29% | pest or weed control at 70 g/ha [2, 14]: 0 to 29% | pest or weed control at 140 g/ha [2, 14]: 0 to 29%
